Assay results taken from US7674464B2, “Intracellular interleukin-1 receptor antagonists” (The University of Tennessee Research Foundation, priority 2004, dated 2010).
“Also recorded” adds a separate entry of the source.

What was measured:
[1] = system: collagen-induced arthritis (CIA); test: collagen-induced arthritis in DBA/1 mice, peptide by osmotic pump; assay type: in vivo
Procedure: The mice (total=20) were immunized by subcutaneous injection at the base of the tail with 100 μg/ml of bovine CII in CFA at day 0. At day 20, an Alzet Osmotic pump-2004 containing 1.67 mg NLS-IL-1ra (1-35) peptide (SEQ ID NO: 18) in 200 microliters D5W solvent (n=10) or the solvent alone (n=10) was surgically inserted subcutaneously in each of 10 mice. Beginning at 21 days after immunization, mice were monitored for the severity (FIG. 40A) and incidence (FIG. 40B) of arthritis.
For osmotic pump delivery of peptide, at day 20 following immunization, an Alzet Osmotic pump-2004 (Durect Corporation, Cupertino, Calif.), containing 1.67 mg NLS-ILra 1-35 peptide in 200 microliters D5W solvent was surgically inserted subcutaneously in each of 10 mice. According to the manufacturer's specifications, the pumps are designed to inject constantly for 4 weeks at the speed of […] 6 μl (50 μg peptide)/day. Each of the 10 control mice received a pump containing same amount D5W only. Animals were periodically monitored for incidence and severity of arthritis and scored as described above.

[2] = system: collagenase; test: TNF alpha-stimulated fibroblast collagenase production; assay type: cell-based; settings: TNF alpha + PBS 9391, PBS 645
Procedure: (§1) To potentially enhance translocation of the peptide, a nuclear localization sequence (NLS), namely, KKKMEKR from human IL-1β was added to the peptide with SEQ ID NO: 13 and the effect of the peptide with and without the NLS on collagenase production was assessed. In this case the cultures were stimulated with TNF-α or basic fibroblast growth factor (bFGF).

[3] = system: collagenase; test: bFGF-stimulated fibroblast collagenase production; assay type: cell-based; settings: bFGF + PBS 5058, PBS 645
Procedure: as §1

[4] = system: collagen-induced arthritis (CIA); test: collagen-induced arthritis in DBA/1 lac mice, peptides by s.c. injection; assay type: in vivo; settings: s.c. 227 μg/kg once daily, 5 consecutive days each week, day 22 to day 50; vs control peptide IL-1ra 37-30
Procedure: Groups of 12 mice were treated with subcutaneous injections of NLS-IL-1ra 1-35 (SEQ ID NO: 18), NLS-IL-1ra 30-37 ([…]) or IL-1ra 37-30 (SEQ ID NO: 43) as a control beginning day 22 to day 50. Mice were injected once each consecutive 5 days out of each week. Mean arthritic score is shoon. P values are determined by Students' t test.
The peptides disclosed in table 11 were delivered to the mice using 2 approaches. The first approach consisted of daily injections for 5 days each week via the subcutaneous (s.c.) route after the first appearance of clinical arthritis. The second approach consisted of continuous delivery via a subcutaneously implanted osmotic pump. For these studies, the following protocols were used: Since a smaller fragment of the 37 amino acid IL-1ra peptide containing amino acids LVAGY (SEQ ID NO: 42) inhibit IL-1β, TNFα, and bFGF induction of MMP-1 in human fibroblasts in vitro, effects of several peptides containing the LVAGY (SEQ ID NO: 42) sequence (Table 11) on CIA in mice was examined.
For s.c. injected route of delivery, 36 six-week old female DBA-1 lac mice were immunized with a stable emulsion of complete Freund's adjuvant (CFA) and native bovine II prepared as previously described (Seyer et al., 1989). Each mouse received 100 μg CII in 50 μl of the CFA CII emulsion intradermally at the base of the tail. Beginning day 14 post immunization, mice were examined for the presence of paw swelling as an indication of the onset of arthritis. On day 21 post immunization, the first paw swelling occurred in 2 mice and on day 22 post immunization, mice were divided into groups of 12. NLS-IL-1ra 1-35 (SEQ ID NO: 18), NSL-IL-1ra 30-37 (SEQ ID NO: 43), and reverse control peptide IL-1ra 37-30 (SEQ ID NO: 44) were separately administered s.c. to groups of 12 mice beginning on day 22 post immunization to day 50 post immunization. […] Results described herein are expressed as the mean arthritic score per mouse arrived at by adding up the total joint scores for mice in each group divided by the number of mice in the group.

[5] = system: collagenase (MMP-1); test: IL-1β-induced collagenase (MMP-1) production by dermal fibroblasts, ELISA; assay type: cell-based, human; settings: same wells as collagenase assay
[6] = system: collagenase (MMP-1); test: as above; assay type: cell-based, human
Procedure: Confluent fibroblast monolayer cultures were treated for 2 hr with IL-1ra peptides and cultured for 48 h with hrIL-1β. Collagenase protein was measured in culture supernatants by ELISA.
Furthermore, the effect of the IL-1ra peptides on the stimulation of MMP-1 and TIMP expression was examined. Briefly, fibroblasts were seeded in wells of Flacon 3008 multiwell plates (5×10^4 cells/500 μl Maintenance Medium). After 72 h culture, the medium was removed from each well and replaced with Maintenance Medium (450 μl) containing 5% FCS and 25 μl of IL-1ra peptides or hrsIL-1ra peptide being tested. Two hrs later 25 μl IL-1β (100 pg/ml) was added to appropriate wells. Plates were incubated for 48 h, at which time medium was collected from each well. Levels of TIMP and collagenase produced by fibroblasts during culture were measured by specific ELISA techniques as previously described (Postlethwaite et al., 1988).

[7] = target: T1, type I IL-1R (Mus musculus, UniProt P13504); test: [125I] IL-1beta competitive binding to type I IL-1 receptors on EL4 6.1 cells; parameters: IL-1beta from type I IL-1Rs on the EL46.1 cells; endogenous in cells; host or cells: EL4 6.1 (murine T cell line); species or system murine; settings: EL4 6.1 cells
T1 sequence (P13504 20-576): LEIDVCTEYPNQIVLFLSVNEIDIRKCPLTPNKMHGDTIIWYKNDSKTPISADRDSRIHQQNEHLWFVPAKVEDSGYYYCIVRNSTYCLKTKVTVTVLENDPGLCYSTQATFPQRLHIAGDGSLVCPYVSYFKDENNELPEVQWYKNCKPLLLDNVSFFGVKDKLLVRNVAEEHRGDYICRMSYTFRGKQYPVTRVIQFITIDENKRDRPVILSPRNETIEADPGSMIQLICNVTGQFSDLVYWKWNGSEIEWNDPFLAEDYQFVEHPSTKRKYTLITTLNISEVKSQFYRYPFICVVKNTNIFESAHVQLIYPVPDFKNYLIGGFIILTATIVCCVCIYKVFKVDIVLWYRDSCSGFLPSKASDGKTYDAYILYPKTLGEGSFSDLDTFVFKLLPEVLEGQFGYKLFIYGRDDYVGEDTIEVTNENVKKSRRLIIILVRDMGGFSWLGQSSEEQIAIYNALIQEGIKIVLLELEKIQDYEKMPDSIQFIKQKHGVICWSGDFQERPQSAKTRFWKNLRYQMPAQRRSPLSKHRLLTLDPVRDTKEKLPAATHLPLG
Procedure: IL-1 beta for binding to type I IL-1 receptors on murine cells. EL46.1 cells were incubated at 4° C. in presence of the sodium azide for 2 hr with and without each of the IL-1ra peptides or with soluble human recombinant interleukin 1ra (shrIL-1ra) as a control. Cells were then incubated with [^125I]hrIL-1, transferred to microfuge tubes containing phthalolate oil, centrifuged and free and bound radioactivity determined. Non-specific binding was determined in the presence of 100× excess concentration of cold hrIL-1 beta.
None of the peptides were able to displace [^125I] IL-1beta from type I IL-1Rs on the EL46.1 cells (FIG. 19). Additionally a competitive binding assay was performed in which the IL-1ra peptides were added to the EL4 cells at the same time [^125I] was added. No displacement of [^125I] IL-1 beta was observed from its receptors in the presence of these IL-1ra peptides.

Sequence	incidence and severity of arthritis ([1]; osmotic pump from day 20, 50 μg peptide/day for 4 weeks, vs D5W solvent, listed as NLS-IL-1ra 1-35)	delay of the onset of arthritis ([1]; osmotic pump, incidence and severity reached control levels after this time) [days]	Collagenase ([2]; TNF alpha (5 ng/ml) + peptide 100 pg/ml) [ng/mL]	Collagenase ([2]; TNF alpha (5 ng/ml) + peptide 1 ng/ml) [ng/mL]	Collagenase ([2]; TNF alpha (5 ng/ml) + peptide 10 ng/ml) [ng/mL]	Collagenase ([2]; TNF alpha (5 ng/ml) + peptide 100 ng/ml) [ng/mL]	Collagenase ([2]; TNF alpha (5 ng/ml) + peptide 1 μg/ml) [ng/mL]	Collagenase ([3]; bFGF (5 ng/ml) + peptide 100 pg/ml) [ng/mL]	Collagenase ([3]; bFGF (5 ng/ml) + peptide 1 ng/ml) [ng/mL]	Collagenase ([3]; bFGF (5 ng/ml) + peptide 10 ng/ml) [ng/mL]	Collagenase ([3]; bFGF (5 ng/ml) + peptide 100 ng/ml) [ng/mL]	Collagenase ([3]; bFGF (5 ng/ml) + peptide 1 μg/ml) [ng/mL]	suppression of CIA, mean arthritic score [4]	fibroblast growth (counting trypsinized cells in hemocytometer) [5]	concentrations at which IL-1 induced collagenase synthesis was inhibited ([6]; dermal fibroblasts, FIG. 21)	inhibition of IL-1-induced collagenase production by fibroblasts ([6]; listed as 1-35 (SEQ ID NO: 13))	inhibition of IL-1-induced collagenase production by fibroblasts ([6]; listed as IL-1ra peptide 1-35)	competition with / displacement of [125I] IL-1beta from type I IL-1Rs [7]
KKKMEKRRPSGRKSSKMQAFRIWDVNQKTFYLRNNQLVAGYL (IL-1ra peptides) [NLS-IL-1ra]	reduced; also recorded: reduces incidence and severity of arthritis	20	243	238	1199	1254	849	2367	2541	3167	3199	5649	suppressed CIA					
RPSGRKSSKMQAFRIWDVNQKTFYLRNNQLVAGYL (IL-1ra peptides representing the mature form of human sIL-1ra) [IL-1ra 1-35, synthetic peptide, residues 1-35 of mature human sIL-1ra]														unchanged	≥ 10^−10 M	blocked	inhibited	did not competitively inhibit the binding
